Assay results as given in PMC7237647, “Synthesis, in vitro and in vivo evaluation of ^11C-O-methylated arylpiperazines as potential serotonin 1A (5-HT1A) receptor antagonist radiotracers” (EJNMMI Radiopharmacy and Chemistry, 2020).

Experiments:
5-HT5a = target: T1, 5-HT5a (Homo sapiens, UniProt P47898); test: NIMH-PDSP radioligand binding assay, 5-HT5a
T1 construct: NIMH-PDSP
Experimental: (§1) . Cross selectivity for biogenic amines, neurotransmitter receptors, and transporters were determined by radioligand binding assays through NIMH- PDSP using validated and established protocols ([NIMH-PDSP Assay Protocol Book Version III, March 2018]).

D2R = target: T2, D2R (Homo sapiens, UniProt P14416); test: NIMH-PDSP radioligand binding assay, D2R
T2 construct: NIMH-PDSP
T2 sequence (P14416 whole entry): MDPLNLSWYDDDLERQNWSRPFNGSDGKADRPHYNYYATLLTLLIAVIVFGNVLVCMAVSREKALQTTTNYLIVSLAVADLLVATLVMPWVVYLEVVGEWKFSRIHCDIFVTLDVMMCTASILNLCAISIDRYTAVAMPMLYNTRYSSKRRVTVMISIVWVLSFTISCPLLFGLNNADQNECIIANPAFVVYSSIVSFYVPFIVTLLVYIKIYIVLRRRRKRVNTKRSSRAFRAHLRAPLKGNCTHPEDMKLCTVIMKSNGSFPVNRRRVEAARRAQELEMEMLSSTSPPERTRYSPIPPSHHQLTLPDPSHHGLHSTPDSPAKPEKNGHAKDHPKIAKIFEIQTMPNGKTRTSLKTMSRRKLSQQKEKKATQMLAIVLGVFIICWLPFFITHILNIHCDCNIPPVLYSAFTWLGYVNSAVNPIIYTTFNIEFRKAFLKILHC

5-HT4 = target: T3, 5-HT4 (Homo sapiens, UniProt Q13639); test: NIMH-PDSP radioligand binding assay, 5-HT4
T3 construct: NIMH-PDSP
T3 sequence (Q13639 whole entry, species assumed): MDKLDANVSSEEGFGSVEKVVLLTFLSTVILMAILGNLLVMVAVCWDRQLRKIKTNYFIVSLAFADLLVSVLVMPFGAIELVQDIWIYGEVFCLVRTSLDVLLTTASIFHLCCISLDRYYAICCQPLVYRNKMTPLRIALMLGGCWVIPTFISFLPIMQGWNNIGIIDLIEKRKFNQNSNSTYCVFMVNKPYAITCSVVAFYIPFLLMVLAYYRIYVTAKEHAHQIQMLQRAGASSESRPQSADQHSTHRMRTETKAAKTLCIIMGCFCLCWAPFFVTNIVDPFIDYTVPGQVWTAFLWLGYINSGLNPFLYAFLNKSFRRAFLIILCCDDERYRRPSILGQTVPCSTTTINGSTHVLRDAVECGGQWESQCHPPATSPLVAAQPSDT
Experimental: as §1

5-HT1B = target: T4, 5-HT1B (Homo sapiens, UniProt P28222); test: NIMH-PDSP radioligand binding assay, 5-HT1B
T4 construct: NIMH-PDSP
Experimental: as §1

5-HT7R = target: T5, 5-HT7R (Homo sapiens, UniProt P34969); test: NIMH-PDSP radioligand binding assay, 5-HT7R
T5 construct: NIMH-PDSP
T5 sequence (P34969 whole entry): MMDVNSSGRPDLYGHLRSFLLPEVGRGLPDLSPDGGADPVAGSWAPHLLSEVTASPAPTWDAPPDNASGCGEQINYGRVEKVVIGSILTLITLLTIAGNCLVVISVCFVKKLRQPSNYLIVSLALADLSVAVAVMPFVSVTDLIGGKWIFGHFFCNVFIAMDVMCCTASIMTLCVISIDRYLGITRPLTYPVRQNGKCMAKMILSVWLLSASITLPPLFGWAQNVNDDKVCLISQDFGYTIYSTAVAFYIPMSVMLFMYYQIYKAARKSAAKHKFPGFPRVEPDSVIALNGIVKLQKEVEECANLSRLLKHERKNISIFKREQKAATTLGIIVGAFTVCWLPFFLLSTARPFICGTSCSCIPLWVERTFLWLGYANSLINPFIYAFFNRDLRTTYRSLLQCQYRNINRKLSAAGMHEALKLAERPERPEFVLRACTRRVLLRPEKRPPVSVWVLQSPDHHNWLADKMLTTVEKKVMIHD

D3R = target: T6, D3R (Homo sapiens, UniProt P35462); test: NIMH-PDSP radioligand binding assay, D3R
T6 construct: NIMH-PDSP
T6 sequence (P35462 whole entry): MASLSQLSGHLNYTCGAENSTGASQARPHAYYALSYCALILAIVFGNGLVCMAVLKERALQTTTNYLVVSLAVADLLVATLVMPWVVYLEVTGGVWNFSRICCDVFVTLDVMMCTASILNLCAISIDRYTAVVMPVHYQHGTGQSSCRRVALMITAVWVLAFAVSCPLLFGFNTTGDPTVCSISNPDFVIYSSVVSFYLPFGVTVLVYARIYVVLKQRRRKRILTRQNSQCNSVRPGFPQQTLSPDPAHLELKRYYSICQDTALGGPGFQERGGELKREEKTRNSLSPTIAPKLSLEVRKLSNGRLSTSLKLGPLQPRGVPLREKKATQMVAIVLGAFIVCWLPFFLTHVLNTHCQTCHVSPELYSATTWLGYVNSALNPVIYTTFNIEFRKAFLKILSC
Experimental: as §1

H1-H4 = test: NIMH-PDSP radioligand binding assay, H1-H4
5-HT1D = target: T7, 5-HT1D (Homo sapiens, UniProt P28221); test: NIMH-PDSP radioligand binding assay, 5-HT1D
T7 construct: NIMH-PDSP
Experimental: as §1

5-HT2A = target: T8, 5-HT2A (Homo sapiens, UniProt P28223); test: NIMH-PDSP radioligand binding assay, 5-HT2A
T8 construct: NIMH-PDSP

NOP = target: T9, NOP (Homo sapiens, UniProt P41146); test: NIMH-PDSP radioligand binding assay, NOP
T9 construct: NIMH-PDSP
T9 sequence (P41146 whole entry): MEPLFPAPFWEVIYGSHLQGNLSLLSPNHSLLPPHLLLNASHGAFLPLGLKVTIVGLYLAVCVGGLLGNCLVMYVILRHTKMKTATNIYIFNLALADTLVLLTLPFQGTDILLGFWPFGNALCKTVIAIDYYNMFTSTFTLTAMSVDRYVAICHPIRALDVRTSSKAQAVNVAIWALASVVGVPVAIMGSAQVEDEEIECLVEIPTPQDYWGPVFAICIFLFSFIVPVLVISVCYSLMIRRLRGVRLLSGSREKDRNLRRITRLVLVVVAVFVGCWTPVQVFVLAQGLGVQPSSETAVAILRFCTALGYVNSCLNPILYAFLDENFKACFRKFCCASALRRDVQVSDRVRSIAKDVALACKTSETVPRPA
Experimental: as §1

Alpha1A = target: T10, Alpha1A (Homo sapiens, UniProt P35348); test: NIMH-PDSP radioligand binding assay, Alpha1A; conditions: text b29 calls it α1-adrenergic receptors
T10 construct: NIMH-PDSP
T10 sequence (P35348 whole entry): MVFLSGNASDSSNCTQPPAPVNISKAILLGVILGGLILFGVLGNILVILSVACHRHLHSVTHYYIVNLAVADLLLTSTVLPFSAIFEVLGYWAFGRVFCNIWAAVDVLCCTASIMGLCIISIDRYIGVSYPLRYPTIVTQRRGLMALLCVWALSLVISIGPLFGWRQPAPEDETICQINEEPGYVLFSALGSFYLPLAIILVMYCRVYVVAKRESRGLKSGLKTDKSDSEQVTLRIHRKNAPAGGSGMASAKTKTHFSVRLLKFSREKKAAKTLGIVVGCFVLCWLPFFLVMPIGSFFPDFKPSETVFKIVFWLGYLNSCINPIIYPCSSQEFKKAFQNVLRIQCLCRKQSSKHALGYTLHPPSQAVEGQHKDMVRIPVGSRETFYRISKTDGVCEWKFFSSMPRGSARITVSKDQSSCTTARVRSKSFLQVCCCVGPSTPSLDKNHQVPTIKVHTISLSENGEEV

SERT = SERT (Homo sapiens, UniProt P31645); test: NIMH-PDSP radioligand binding assay, SERT
Chain of SERT (P31645 whole entry, species assumed): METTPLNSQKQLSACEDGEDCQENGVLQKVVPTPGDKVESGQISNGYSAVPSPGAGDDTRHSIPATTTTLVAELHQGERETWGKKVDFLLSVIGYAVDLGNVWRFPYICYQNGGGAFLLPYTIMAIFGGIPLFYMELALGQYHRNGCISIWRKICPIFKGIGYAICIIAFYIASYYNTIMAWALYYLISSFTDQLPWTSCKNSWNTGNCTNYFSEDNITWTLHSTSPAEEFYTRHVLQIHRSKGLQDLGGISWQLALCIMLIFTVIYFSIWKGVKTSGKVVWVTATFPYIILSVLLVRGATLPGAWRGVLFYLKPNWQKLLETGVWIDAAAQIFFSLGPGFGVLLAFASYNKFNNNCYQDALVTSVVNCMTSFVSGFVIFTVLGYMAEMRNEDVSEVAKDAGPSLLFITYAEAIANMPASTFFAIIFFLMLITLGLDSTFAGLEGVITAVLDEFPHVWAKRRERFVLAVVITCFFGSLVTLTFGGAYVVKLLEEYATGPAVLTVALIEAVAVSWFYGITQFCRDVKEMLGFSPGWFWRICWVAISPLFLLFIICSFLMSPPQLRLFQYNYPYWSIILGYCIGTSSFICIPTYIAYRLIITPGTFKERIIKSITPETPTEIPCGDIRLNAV
Experimental: as §1

5-HT1A receptors = target: 5-HT1A receptors; set-up: method as in ref Fiorino et al. [2012], Fiorino et al. [2016], Fiorino et al. [2017]; conditions: previous reports, different binding assay methodology; ref Fiorino et al. [2012], Fiorino et al. [2016], Fiorino et al. [2017]; cited from earlier work
DOR, KOR, MOR = test: NIMH-PDSP radioligand binding assay, DOR, KOR, MOR
5-HT2C = target: T11, 5-HT2C (Homo sapiens, UniProt P28335); set-up: method as in ref Fiorino et al. [2012]; Fiorino et al. [2016]; Fiorino et al. [2017]; conditions: previous preliminary pharmacological screening; ref Fiorino et al. [2012]; Fiorino et al. [2016]; Fiorino et al. [2017]; cited from earlier work
T11 construct: NIMH-PDSP
T11 sequence (P28335 33-458): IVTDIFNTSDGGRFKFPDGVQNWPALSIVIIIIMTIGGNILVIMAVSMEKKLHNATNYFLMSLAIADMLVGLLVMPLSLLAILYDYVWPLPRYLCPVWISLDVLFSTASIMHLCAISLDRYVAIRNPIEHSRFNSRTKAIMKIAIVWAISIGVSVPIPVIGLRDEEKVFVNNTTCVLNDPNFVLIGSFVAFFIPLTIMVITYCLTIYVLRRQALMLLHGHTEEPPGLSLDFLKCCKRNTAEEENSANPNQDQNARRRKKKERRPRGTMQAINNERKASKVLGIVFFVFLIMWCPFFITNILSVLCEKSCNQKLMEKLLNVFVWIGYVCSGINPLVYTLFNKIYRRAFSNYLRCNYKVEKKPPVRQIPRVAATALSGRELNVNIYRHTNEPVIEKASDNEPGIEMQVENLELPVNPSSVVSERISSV

5-HT2B = target: T12, 5-HT2B (Homo sapiens, UniProt P41595); test: NIMH-PDSP radioligand binding assay, 5-HT2B
T12 construct: NIMH-PDSP
T12 sequence (P41595 whole entry, species assumed): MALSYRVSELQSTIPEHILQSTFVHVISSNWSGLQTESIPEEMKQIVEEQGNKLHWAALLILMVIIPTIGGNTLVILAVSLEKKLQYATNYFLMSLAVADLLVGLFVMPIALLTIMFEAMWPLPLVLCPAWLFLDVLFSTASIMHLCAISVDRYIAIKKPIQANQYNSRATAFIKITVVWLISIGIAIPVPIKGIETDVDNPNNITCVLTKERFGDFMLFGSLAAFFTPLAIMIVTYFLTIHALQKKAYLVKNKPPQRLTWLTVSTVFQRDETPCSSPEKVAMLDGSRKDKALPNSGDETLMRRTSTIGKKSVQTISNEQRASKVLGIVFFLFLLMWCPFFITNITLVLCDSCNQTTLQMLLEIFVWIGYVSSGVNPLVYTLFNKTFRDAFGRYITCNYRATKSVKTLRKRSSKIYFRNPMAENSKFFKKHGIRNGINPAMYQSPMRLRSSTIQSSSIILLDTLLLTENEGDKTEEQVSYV
Experimental: as §1

Adenosine receptors = test: NIMH-PDSP radioligand binding assay, Adenosine receptors
Sigma1R = target: T13, Sigma1R (Homo sapiens, UniProt Q99720); test: NIMH-PDSP radioligand binding assay, Sigma1R
T13 construct: NIMH-PDSP
T13 sequence (Q99720 whole entry, species assumed): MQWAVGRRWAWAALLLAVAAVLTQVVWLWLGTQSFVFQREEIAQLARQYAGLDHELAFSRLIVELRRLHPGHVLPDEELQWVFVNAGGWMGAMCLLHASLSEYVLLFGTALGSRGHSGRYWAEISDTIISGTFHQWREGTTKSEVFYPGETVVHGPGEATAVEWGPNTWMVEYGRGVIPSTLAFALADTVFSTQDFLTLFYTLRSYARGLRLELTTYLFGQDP
Experimental: as §1

Alpha 2A = target: T14, Alpha 2A (Homo sapiens, UniProt P08913); test: NIMH-PDSP radioligand binding assay, Alpha 2A
T14 construct: NIMH-PDSP
T14 sequence (P08913 whole entry): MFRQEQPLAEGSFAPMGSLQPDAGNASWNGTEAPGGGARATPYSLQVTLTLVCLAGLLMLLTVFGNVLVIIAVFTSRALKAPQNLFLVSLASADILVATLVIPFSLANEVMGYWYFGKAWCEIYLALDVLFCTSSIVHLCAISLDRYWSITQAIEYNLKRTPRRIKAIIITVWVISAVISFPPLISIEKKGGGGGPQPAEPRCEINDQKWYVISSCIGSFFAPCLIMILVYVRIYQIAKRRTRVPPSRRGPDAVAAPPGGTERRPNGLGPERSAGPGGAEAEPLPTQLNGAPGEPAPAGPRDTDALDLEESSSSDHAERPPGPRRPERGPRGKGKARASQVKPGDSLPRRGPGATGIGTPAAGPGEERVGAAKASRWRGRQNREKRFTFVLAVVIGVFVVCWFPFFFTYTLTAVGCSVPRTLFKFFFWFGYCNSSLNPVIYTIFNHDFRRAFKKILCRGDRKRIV

T1 sequence (P47898 whole entry, species assumed): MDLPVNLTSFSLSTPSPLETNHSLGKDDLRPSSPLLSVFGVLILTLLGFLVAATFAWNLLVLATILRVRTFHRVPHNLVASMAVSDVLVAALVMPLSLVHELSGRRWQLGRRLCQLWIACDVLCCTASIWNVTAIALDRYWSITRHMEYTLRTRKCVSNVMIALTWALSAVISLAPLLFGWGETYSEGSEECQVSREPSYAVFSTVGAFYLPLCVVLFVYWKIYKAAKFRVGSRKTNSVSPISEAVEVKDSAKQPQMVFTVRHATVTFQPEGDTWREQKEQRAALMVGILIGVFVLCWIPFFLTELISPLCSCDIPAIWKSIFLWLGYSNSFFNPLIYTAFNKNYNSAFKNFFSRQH

SMILES	Ki (5-HT5a) [µM]	Ki (D2R) [µM]	Ki (5-HT4) [µM]	Ki (5-HT1B) [µM]	Ki (5-HT7R) [µM]	Ki (D3R) [µM]	Ki (H1-H4) [µM]	Ki (5-HT1D) [µM]	Ki (5-HT2A) [µM]	Ki (NOP) [µM]	Ki (Alpha1A) [µM]	Ki (SERT) [µM]	Ki (5-HT1A receptors) [µM]	Ki (DOR, KOR, MOR) [µM]	affinity to 5-HT2C (5-HT2C)	Ki (5-HT2B) [µM]	Ki (Adenosine receptors) [µM]	Ki (Sigma1R) [µM]	Ki (Alpha 2A) [µM]
COc1ccccc1N1CCN(CCCN/C(=N\C#N)c2ccccn2)CC1 [Compound 1]	> 10	0.777	> 10	> 10	0.076	0.369	> 10	> 10	> 10	> 10	0.129	> 10	0.00468	> 10	high affinities	0.403	> 10	0.52	0.453
COc1ccccc1N1CCN(CCNC(=O)c2ccccn2)CC1 [Compound 2]	> 10	> 10	> 10	> 10	0.83	2.55	> 10	> 10	> 10	> 10	0.046	> 10	–	> 10	–	0.516	> 10	> 10	> 10
